One data set has as its system JCV strain Mad1/SVEΔ. As to the kind of experiment: microbe, parasite or virus in culture. To be noted: for inhibition at 10 µM / IC50: JC polyomavirus. Format: cell-based, JC polyomavirus (JCV). As to the method: (§1) SV40 transformed glial cells were seeded in 10% FBS media. The cells were seeded at 2000 cells per well in 75 μl of media per well. On day 2, the media was removed and replaced by 35 μl of a 1× concentrated drug aliquot combined with a 100× diluted JCV Turbo aliquot in 35 μl of 2% FBS media (JCV Turbo is a hybrid Mad-1/SVEΔ virus constructed by insertion of the regulatory region of SV40 into the regulatory region of the Mad-1 strain of JCV (Mad-1/SVE), Vacante et al., Virology 1989, 170: 353-361). The cells were incubated for an hour, after which another 65 uL aliquot of 1× concentrated drug in 2% FBS was added. On day 5 the cells were stained with DAPI (for total cell number) and with a mouse monoclonal antibody against SV40 VP1, which cross reacts with the JCV VP1 protein. […] The information is tabulated as % inhibition (as measured by the number and percentage of JCV positive cells).
(§2) JCV Infectivity Assay: SVG-A cells were seeded at 2,000 cells/well/0.075 ml of culture media in 96 flat-bottom well plate (Corning, N.Y.). The next day compounds were prepared in assay medium (2% heat-inactivated fetal bovine serum, 4 mM L-glutamine, 1×MEM). A master viral plate was prepared by mixing equal volumes of [2×] compound and [2×] diluted virus for the final 1× concentration of the compound and the virus. The plate containing cells was gently inverted and shaken to remove media. From the master plate, 0.035 ml compound/virus was added to designated wells. The cells were incubated with the compound/virus mixture for 60 minutes in a humidified 37° C. CO2 incubator. At that time final concentration of the drug in media was added to designated wells to bring the final volume up to 0.1 ml/well. The plates were incubated for an additional three days, the cells were then washed once with 1×PBS, and fixed in 2% paraformaldehyde/1×PBS for 30 minutes at room temperature. The fixative was removed and the cells were solubilized with 0.5% Triton X100 in PBS for an additional 30 minutes. Infection by Mad-1/SVEΔ virus was visualized by staining with PAB597, a monoclonal antibody against the major capsid protein VP1, the cells were incubated with 0.05 ml of PAB597 (2 μg/ml in 1×PBS) for 60 minutes at 37° C. Following a wash step with 1×PBS, primary antibody was detected with an Alexa-Fluor 488-labeled goat anti-mouse secondary antibody at 1:100 dilution in 1×PBS, cells were counterstained with DAPI at 1 μg/ml (0.05 ml/well) for 30 minutes at 37° C. Cells were washed with 1×PBS and 0.1 ml 1×PBS was added to cells. Field images of each well were acquired and analyzed using the Cellomics ArrayScan (Thermo Scientific Inc, Waltham, Mass.) using the Target Activation software. […] The cells are seeded at 4,000 cells/well/0.075 ml of culture media in 96 flat-bottom well plate (Corning). The culture media is used for the infection. The length of the infection is six to ten days (instead of the three days for SVG-A cells).
Calculations: The rate of JCV infection was calculated by normalizing the number of JCV infected cells by the total number of nucleated cells as % JCV^+ cells=((total # VP1^+ cells)/(total # DAPI^+ cells))*100%. The % of viral inhibition by a compound was calculated using a JCV infection rate instead of using total number of JCV infected cells (e.g., VP1^+ cells).

The subject of the next data set is SVG-A cells. As to the kind of experiment: Total cell number (DAPI+ events) / cytotoxicity in the JCV infectivity assay. To be noted: for inhibition at 10 µM: Homo sapiens, SVG-A, read-out: % Inhibition total Cell Number @10 uM. On the procedure: as §1, §2
(§3) The primary assay employed an SVG-A cell line and JCV Mad1/SVEΔ viral strain.

The conditions of data set [1]: human, in vivo. The source says:
The published literature was reviewed for information on pharmacokinetics and brain distribution of these drugs in humans and in animal models. Since JC virus uncontrollably replicates in the oligodendrocytes and astrocytes of the effected individuals during PML but not all drugs are capable of crossing blood brain barrier it would be advantageous for any potential PML therapy if the drug candidate is capable of achieving efficacious concentration in the brain.

Another data set has as its system Mad1/SVEΔ JCV. Description: JCV infection of primary human fetal astrocytes. Format: cell-based, JC polyomavirus (JCV). On the procedure: CO2 incubator. […] The culture media is used for the infection.
FIG. 5A illustrates SVG-A cells with Mad1/SVEΔ JCV (n=12) virus. FIG. 5B illustrates primary human fetal astrocytes with Mad1/SVEΔ JCV.
Since during PML many cells are already infected with JC virus, in some embodiments a drug candidate for treatment of PML may be selected as one that can inhibit viral life cycle in already infected cells. […] In FIG. 7 various concentration of the drug were added to the culture of primary human fetal astrocytes infected with JC virus at the same time as virus (circles; T=0), 3 hours after virus addition (squires; T=3 h), or 24 hours after (triangles; T=24 h). Ten days after infection with the virus cells were fixed and number of virally infected cells was enumerated. Results of a representative experiment out of 4 different experiments with primary astrocytes or SVG-A cells are shown.

The test system of a further data set is JCV strain Mad-4. Description: JCV strain Mad-4 infection of SVG-A cells. The class given is cell-based, JC polyomavirus (JCV). To be noted: 5 independent experiments.
The subject of another data set is JCV DNA replication. As to the kind of experiment: JCV DNA replication by qPCR (TAg probe) in SVG-A cells. Format: cell-based, JC polyomavirus (JCV). As to conditions: 3 days after infection, compared with infection rate inhibition.
For data set [2] the following is noted: published PK data, cited from earlier work.
The nature of a further data set: in vitro. As to conditions: human. As to the method: as §1, §2, §3
The conditions of data set [3]: # animal data; published PK data; cited from earlier work.
Setting [4] is: Glial cell, read-out: % Inhibition (total #JCV+) @10 uM.
[5] abbreviates: SVG-A, read-out: % Inhibition (% JCV+) @10 uM.

Molecules are shown by their SMILES. Read-outs that look alike come from different tables or passages of the source.

The inhibition is the change of the read-out against control, counted positive when it falls. A word on the Cmax: it is the peak of the concentration-time curve.

In the case of `OC(c1cc(C(F)(F)F)nc2c(C(F)(F)F)cccc12)C1CCCCN1` (racemic) [MEFLOQUINE, [2,8-bis(trifluoromethyl)quinolin-4-yl]-piperidin-2-ylmethanol], in the data set with JCV strain Mad1/SVEΔ (FIG. 10), the “anti-JCV activity in presence of cerebrospinal fluid (CSF), in words” value was “not inhibited by cerebrospinal fluid (CSF)”. The values for the inhibition at 10 µM with JCV strain Mad1/SVEΔ (setting [4]), with JCV strain Mad1/SVEΔ (setting [5]) and with SVG-A cells were 66%, 64% and 5%, respectively. Besides, the IC50 was determined as 4 µM in the data set on JCV strain Mad1/SVEΔ (SVG-A) and 3.9 ± 2.1 µM with JCV strain Mad1/SVEΔ (SVG-A, read-out: IC50 (in vitro efficacious concentration)). The “Inhibition of total cell numbers (DAPI+ events)” value in the data set on SVG-A cells (at the drug concentrations of the dose response curves) is “less than 20%”. Moreover, the CC50 in the data set with SVG-A cells (human, 3 days) amounted to 16.1 µM. Further, the “Brain concentration, approximated” value in [1] was 35 to 50 µM. In addition, the “inhibition of JCV infection of primary human fetal astrocytes, in words” value in the data set with Mad1/SVEΔ JCV (compared with SVG-A cells) is recorded as “essentially the same efficacy as it inhibits viral infection in SVG-A cells”. Besides, the “inhibition of cell infection when added 3 or 24 hours post infection, in words” value in the data set on Mad1/SVEΔ JCV (primary human fetal astrocytes, read ten days after infection) is reported as “just as effective at inhibiting cell infection as it was when added to the cells together with the virus”. The “inhibition of Mad4 infection of SVG-A cells, in words” value with JCV strain Mad-4 is on record as “the same efficacy as Mad1/SVEΔ infection”. For the same compound, in the data set with JCV DNA replication, the “percent of JCV DNA inhibition, in words” value was “almost overlaps the percent of infection rate inhibition”. Besides, the Cmax in data set [2] (read-out: plasma Cmax) is 6 µM.
As to `Cc1nccc2c1[nH]c1ccccc12` [HARMANE], the inhibition at 10 µM in the data set with JCV strain Mad1/SVEΔ (setting [4]) was 24%; in the data set with JCV strain Mad1/SVEΔ (setting [5]), 22%; in the data set on SVG-A cells, 4%. For the same compound, in the data set on JCV strain Mad1/SVEΔ (SVG-A), the IC50 was 14.4 µM. This compound showed a CC50 in the data set “in vitro” of over 40 µM.
Turning to `Cc1cccc(Nc2ccccc2C(=O)O)c1C` [MEFENAMIC ACID], the inhibition at 10 µM in the data set on JCV strain Mad1/SVEΔ (setting [4]) was found to be 29%; in the data set with JCV strain Mad1/SVEΔ (setting [5]) it was 29%; in the data set with SVG-A cells it was 0%. The compound further came in with an IC50 with JCV strain Mad1/SVEΔ (SVG-A) of 10.9 µM. Further, the Brain in data set [3] was 0.8 µg/mL. The “plasma Cmax” value in data set [2] was 10000 to 20000 ng/mL.
Turning to `COc1cc(C)c2c(=O)c(-c3ccccc3)coc2c1` [METHOXYVONE], the results for the inhibition at 10 µM in the data set on JCV strain Mad1/SVEΔ (setting [4]), with JCV strain Mad1/SVEΔ (setting [5]) and in the data set on SVG-A cells were 38%, 27% and 15%, respectively. Moreover, the IC50 with JCV strain Mad1/SVEΔ (SVG-A) came to 17.2 µM. Further, in “in vitro”, the CC50 was over 40 µM.
With `CCC(=O)Nc1ccc(Cl)c(Cl)c1` [PROPANIL], the inhibition at 10 µM with JCV strain Mad1/SVEΔ (setting [4]) was 12%; in the data set with JCV strain Mad1/SVEΔ (setting [5]), 21%; in the data set on SVG-A cells, -12%. This compound also displayed an IC50 in the data set on JCV strain Mad1/SVEΔ (SVG-A) of 7.8 µM. This compound also came in with a CC50 at 3 days in the data set “in vitro” of over 40 µM.

Values taken from patent publication US9233107B2, “Compositions and methods for the treatment of progressive multifocal leukoencephalopathy (PML)” (Biogen MA Inc., priority 2007, dated 2016).
